Reference: patent US9089543B2, “Anti-inflammatory composition containing macrolactin A and a derivative thereof as active ingredients” (DAEWOO PHARMACEUTICAL IND. CO., LTD., priority 2009, dated 2015)
Entries after “also recorded” stand apart in the source; their conditions may differ.

How the values were obtained:
[1] = system: COX-2 mRNA; assay: Expression of COX-2 mRNA by real-time PCR in LPS-stimulated RAW264.7 cells; assay type: cell-based, murine; conditions: RAW264.7, LPS 0.1 μg/ml, 16 hours
Method: (§1) RAW264.7, a murine macrophage cell line, was obtained from Korean Cell Line Bank (KCLB). It was cultured in Dulvecco's modified Eagle's medium (DMEM, LONZA) containing 10% fetal bovine serum (FBS, LONZA) and 1% penicillin/streptomycin (Sigma) in an incubator at 37° C. under 5% CO2 and then sub-cultured when the cell density reached 80%. After RAW264.7 cells were cultured for 24 hours, MA (1-100 μM), MMA (10 μM), SMA (10 μM) and hydrocortisone (10 μM), which is a well-known substance having anti-inflammatory activity, were added. One hour after the addition, LPS (0.1 or 1.0 μg/ml, Sigma) was added to the mixture, which was then cultured for 8 or 16 hours. Dimethyl sulfoxide (hereinafter, “DMSO”) was used as a negative control, while LPS (0.1 or 1.0 μg/ml, Sigma) was used as a positive control without adding the macrolactin compounds.
The effect of the present macrolactin compounds on the expression of intracellular inflammatory factors, iNOS and COX-2 mRNA was investigated. Murine macrophage RAW264.7 cells adjusted to 1×10^5 cells/well were cultured in a 6-well plate for 24 hours under the conditions mentioned in Example 2 and then further cultured for 16 hours after being treated with the present macrolactin compounds and LPS (0.1 μg/ml, Sigma). Total RNA of the cultured cells was isolated by Trizol reagent (Sigma) under RNase-free conditions. A cDNA synthesis kit (TAKARA) was used to obtain a template for PCR using the separated total RNA. […]
The extent of iNOS and COX-2 mRNA expression of the mixture was determined by using a real-time gene amplifier (Corbett Life Science Rotor-gene 6000). […] When the mRNA expressions of the samples were compared with each other, that of the housekeeping gene was determined at the same time and then the relative quantity was calculated. By compensating the amount of RNA for the measured value of the housekeeping gene, the amount of mRNA produced in each sample was calculated to Ct (Threshold cycle) value.

[2] = system: COX-2 protein; assay: Formation of COX-2 protein by western blot in LPS-stimulated RAW264.7 cells; assay type: cell-based, murine; conditions: RAW264.7, LPS 0.1 μg/ml, 16 hours
Method: as §1
(§2) The effect of the present macrolactin compounds on the formation of intracellular inflammatory factor, iNOS and COX-2 protein was investigated. Murine macrophage RAW264.7 cells adjusted to 1×10^6 cells/dish were cultured in a 100 mm dish for 24 hours under the conditions mentioned in Example 2 and then further cultured for 16 hours after being treated with the present macrolactin compounds and LPS (0.1 μg/ml, Sigma). The cells were washed 2-3 times with cold PBS and then collected. 100 μl of 50 mM Tris-HCl buffer, pH7.5 (0.1 M KCl, 1 mM EDTA, 1 mM DTT, 0.2 mM PMSF) were added to the collected cells, which were lysed by using liquid nitrogen. The lysate was centrifuged at 4° C. for 10 minutes at 13,000 rpm to collect the supernatant. Protein was quantitatively analyzed by the Bradford method. 50 μg of the protein was subjected to sodium dodecyl sulfate-polyacrylamide gel electrophoresis (SDS-PAGE). The SDS-PAGE gel was transferred to nitrocellulose membrane (Amersham) at 50 V for 2 hours. The nitrocellulose membrane was washed twice with 1× Tris buffered saline (TBS; 0.1 M NaCl, 10 mM Tris-HCl), to which was added 3% gelatin solution for blocking non-specific protein reaction and then reacted at room temperature for 1 hour. […]

[3] = system: vancomycin-resistant Enterococci (VRE), methicillin-resistant Staphylococcus aureus (MRSA) and Burkholderia cepacia; conditions: against VRE, compounds from Bacillus subtilis DSM 16696; cited from earlier work
[4] = system: iNOS mRNA; assay: Expression of iNOS mRNA by real-time PCR in LPS-stimulated RAW264.7 cells; assay type: cell-based, murine; conditions: RAW264.7, LPS 0.1 μg/ml, 16 hours; for inhibition of expression of iNOS mRNA: real-time PCR; for inhibition of iNOS mRNA expression compared to hydrocortisone: relative to hydrocortisone (10 μM)
Method: as §1
The effect of the present macrolactin compounds on the expression of intracellular inflammatory factors, iNOS and COX-2 mRNA was investigated. Murine macrophage RAW264.7 cells adjusted to 1×10^5 cells/well were cultured in a 6-well plate for 24 hours under the conditions mentioned in Example 2 and then further cultured for 16 hours after being treated with the present macrolactin compounds and LPS (0.1 μg/ml, Sigma). Total RNA of the cultured cells was isolated by Trizol reagent (Sigma) under RNase-free conditions. A cDNA synthesis kit (TAKARA) was used to obtain a template for PCR using the separated total RNA. To the mixture of 1 μl of Oligo dT Primer (50 μM), 1 μl of dNTP Mixture (10 mM each) and 2 μg of the template RNA, RNase-free dH2O was added to adjust the total volume to 10 μl. The mixture was maintained at 65° C. for 5 minutes and then in ice for 2 minutes. To the mixture of 10 μl of the mixture, 4 μl of 5× PrimeScript™ buffer, 0.5 μl of RNase inhibitor (40 U/μl), and 0.5 μl of PrimeScript™ RTase (200 U/μl), RNase-free dH2O was added to adjust the total volume to 20 μl. The mixture was reacted at 42° C. for 30 minutes to synthesize cDNA.
The extent of iNOS and COX-2 mRNA expression of the mixture was determined by using a real-time gene amplifier (Corbett Life Science Rotor-gene 6000). The operating condition of the real-time gene amplifier was as follows: initial denaturation started at 95° C. for 5 minutes and was then repeated 50 times at 94° C. for 30 seconds, at 57° C. for 30 seconds and 72° C. for 30 seconds. When the mRNA expressions of the samples were compared with each other, that of the housekeeping gene was determined at the same time and then the relative quantity was calculated. By compensating the amount of RNA for the measured value of the housekeeping gene, the amount of mRNA produced in each sample was calculated to Ct (Threshold cycle) value.

[5] = system: IL-6 formation in RAW264.7 cells; assay: Inhibition of IL-6 formation (mouse ELISA kit) in LPS-stimulated RAW264.7 cells; assay type: cell-based, murine; conditions: RAW264.7, LPS
Method: (§3) The present inventors have confirmed the anti-inflammatory effects of the above macrolactin compounds to accomplish the present invention. In order to investigate the anti-inflammatory effects, a murine macrophage RAW264.7 cell line treated with each of the purified compounds was stimulated by LPS (0.1 μg/mL or 1.0 μg/mL, Sigma), and then the formation of inflammation-inducing substances 1) NO and 2) PEG2 and the expression of enzymes related to their formation were analyzed. The formation of 3) pro-inflammatory cytokines, TNF-α, IL-1β, IL-6 and GM-CSF were also analyzed by the same procedures.
(§4) 3) Suppression of pro-inflammatory cytokines by the present macrolactin compounds was determined by using a mouse ELISA kit (KOMA Biotech).
as §1

[6] = system: PGE2 formation in RAW264.7 cells; assay: Inhibition effect on PGE2 formation (EIA kit) in LPS-stimulated RAW264.7 cells; assay type: cell-based, murine; conditions: RAW264.7, LPS 0.1 μg/ml, 16 hours; vs control treated with LPS only
Method: as §1
The amount of formed PGE2, an intracellular […] factor, was determined by using an Amersham prostaglandin E2 biotrak Enzymeimmunoassay (EIA) system Kit (GE Healthcare). Murine macrophage RAW264.7 cells adjusted to 2×10^4 cells/well were cultured in a 96-well plate for 24 hours under the conditions mentioned in Example 2 and then further cultured for 16 hours after being treated with the present macrolactin compounds and LPS (0.1 μg/ml, Sigma). The amount of produced PGE2 was calculated using the calibration curve which had been made through the standard solution provided by the manufacturer at an absorbance of 450 nm in a UV spectrometer. The r^2 value of the calibration curve against the standard substance was above 0.99.

[7] = system: TNF-α formation in RAW264.7 cells; assay: Inhibition of TNF-α formation (mouse ELISA kit) in LPS-stimulated RAW264.7 cells; assay type: cell-based, murine; conditions: RAW264.7, LPS; for inhibition of TNF-α formation: vs control treated with LPS only
Method: as §3, §4, §1

[8] = system: NO formation in RAW264.7 cells; assay: Inhibition effect on NO formation (Griess reaction) in LPS-stimulated RAW264.7 cells; assay type: cell-based, murine; conditions: RAW264.7, LPS 0.1 μg/ml, 16 hours; MA 1-100 μM, MMA, SMA, hydrocortisone 10 μM; vs control treated with LPS only
Method: as §1
NO concentration in cell culture was determined by using a Nitrate/Nitrite colorimetric assay Kit (Cayman). Murine macrophage RAW264.7 cells adjusted to 1×10^5 cells/well were cultured in a 6-well plate for 24 hours under the conditions mentioned in Example 2, and then further cultured for 16 hours after being treated with the present macrolactin compounds and LPS (0.1 μg/ml, Sigma). The cultured media were treated with Griess reagent R1 (sulfanilamide) and then Griess reagent R2 (N-(1-Naphthyl)-ethylenediamine) in a 96-well plate provided by the manufacturer, and then detected the formation of purple azo group from nitrite. The amount of produced NO was calculated using the calibration curve which had been made through the standard solution provided by the manufacturer at an absorbance of 540 nm in a UV spectrometer.

[9] = system: iNOS protein; assay: Formation of iNOS protein by western blot in LPS-stimulated RAW264.7 cells; assay type: cell-based, murine; conditions: RAW264.7, LPS 0.1 μg/ml, 16 hours
Method: as §1, §2

[10] = system: IL-1β formation in RAW264.7 cells; assay: Inhibition of IL-1β formation (mouse ELISA kit) in LPS-stimulated RAW264.7 cells; assay type: cell-based, murine; conditions: RAW264.7, LPS
Method: as §3, §4
(§5) RAW264.7, a murine macrophage cell line, was obtained from Korean Cell Line Bank (KCLB). It was cultured in Dulvecco's modified Eagle's medium (DMEM, LONZA) containing 10% fetal bovine serum (FBS, LONZA) and 1% penicillin/streptomycin (Sigma) in an incubator at 37° C. under 5% CO2 and then sub-cultured when the cell density reached 80%. After RAW264.7 cells were cultured for 24 hours, MA (1-100 μM), MMA (10 μM), SMA (10 μM) and hydrocortisone (10 μM), which is a well-known substance having anti-inflammatory activity, were added. One hour after the addition, LPS (0.1 or 1.0 μg/ml, Sigma) was added to the mixture, which was then cultured for 8 or 16 hours. […]

[11] = system: murine macrophage RAW264.7; assay: Cytotoxicity by MTT analysis; assay type: cell-based; conditions: RAW264.7, MTT, 16 hours
Method: as §1
MTT analysis was used to investigate the cytotoxic effects on murine macrophage RAW264.7 of the present macrolactin compounds. The cells adjusted to 4×10^4 cells/well were cultured in a 96-well plate for 24 hours under the conditions mentioned in Example 2 and then further cultured for 16 hours after being treated with the present macrolactin compounds. After the medium was removed, 100 μl of MTT solution (2 mg/ml PBS) was added, and then the mixture was cultured in an incubator at 37° C. under 5% CO2 for 4 hours. After the MTT solution was removed, 100 μl of DMSO was added, and then the mixture was shake-cultured for 30 minutes in the dark. After the culture, the amount of free formazan was determined at 540 nm by using an ELISA reader.

[12] = system: GM-CSF formation in RAW264.7 cells; assay: Inhibition of GM-CSF formation (mouse ELISA kit) in LPS-stimulated RAW264.7 cells; assay type: cell-based, murine; conditions: RAW264.7, LPS
Method: as §3, §4, §5

C[C@@H]1CCC/C=C/C=C/[C@H](O)C[C@@H](O)C/C=C\C=C\[C@@H](OC(=O)CCC(=O)O)C/C=C/C=C\C(=O)O1 [SMA, 7-O-succinyl macrolactin A]
inhibition of expression of COX-2 mRNA [1]: strongly inhibited
inhibition of formation of COX-2 protein [2]: strongly inhibited
anti-bacterial activity [3]: superior anti-bacterial activity
inhibition of expression of iNOS mRNA [4]: strongly suppressed; also recorded: strongly inhibited
inhibition of iNOS mRNA expression compared to hydrocortisone [4]: comparable to or superior to that of hydrocortisone
inhibition of IL-6 formation [5]: strongly inhibited
inhibition of PGE2 formation [6]: strongly inhibited
inhibition of TNF-α formation [7]: inhibited
inhibition of NO formation [8]: strongly inhibited; also recorded: low inhibition activities
inhibition of formation of iNOS protein [9]: strongly inhibited
inhibition of IL-1β formation [10]: strongly inhibited
cytotoxicity compared to hydrocortisone [11]: lower cytotoxicities
inhibition of GM-CSF formation [12]: strongly inhibited

C[C@@H]1CCC/C=C/C=C/[C@H](O)C[C@@H](O)C/C=C\C=C\[C@@H](OC(=O)CC(=O)O)C/C=C/C=C\C(=O)O1 [MMA, 7-O-malonyl macrolactin A]
inhibition of expression of COX-2 mRNA [1]: strongly inhibited
inhibition of formation of COX-2 protein [2]: strongly inhibited
anti-bacterial activity [3]: superior anti-bacterial activity
inhibition of expression of iNOS mRNA [4]: strongly suppressed; also recorded: strongly inhibited
inhibition of iNOS mRNA expression compared to hydrocortisone [4]: comparable to or superior to that of hydrocortisone
inhibition of IL-6 formation [5]: strongly inhibited
inhibition of PGE2 formation [6]: strongly inhibited
inhibition of TNF-α formation [7]: inhibited
inhibition of NO formation [8]: strongly inhibited; also recorded: low inhibition activities
inhibition of formation of iNOS protein [9]: strongly inhibited
cytotoxicity compared to hydrocortisone [11]: lower cytotoxicities

C[C@]12CCC(=O)C=C1CC[C@@H]1[C@@H]2[C@@H](O)C[C@@]2(C)[C@H]1CC[C@]2(O)C(=O)CO [hydrocortisone, reference compound]
inhibition of NO formation [8]: strongly inhibited

CC1CCC/C=C/C=C/[C@H](O)C[C@@H](O)C/C=C\C=C\[C@@H](O)C/C=C/C=C\C(=O)O1 (stereo partly drawn) [MA, macrolactin A]
inhibition of expression of COX-2 mRNA [1]: strongly inhibited
inhibition of formation of COX-2 protein [2]: strongly inhibited
anti-bacterial activity [3]: anti-bacterial effect against MRSA only
inhibition of expression of iNOS mRNA [4]: strongly suppressed; also recorded: strongly inhibited
inhibition of iNOS mRNA expression compared to hydrocortisone [4]: comparable to or superior to that of hydrocortisone
inhibition of IL-6 formation [5]: strongly inhibited
inhibition of PGE2 formation [6]: strongly inhibited
inhibition effect on TNF-α formation compared to hydrocortisone / control substances ([7]; relative to hydrocortisone): especially superior inhibition effect
inhibition of TNF-α formation [7]: inhibited
inhibition of NO formation [8]: strongly inhibited
inhibition of formation of iNOS protein [9]: strongly inhibited
inhibition of IL-1β formation [10]: strongly inhibited
cytotoxicity compared to hydrocortisone [11]: lower cytotoxicities
inhibition of GM-CSF formation [12]: strongly inhibited
